# Results reported in PubChem BioAssay (NCI).
#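 Compound exposure: 48 hours, 5 concentrations, 96-well plates. The concentration for 50% growth inhibition is given as GI50. TGI denotes the concentration required for complete inhibition of growth.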
# Assays:
# Experiment in all cases: NCI tumour cell line growth inhibition, 48 h
# RPMI-8226 leukemia = system: RPMI-8226 leukemia
# MDA-MB-231 breast = system: MDA-MB-231 breast
# SR leukemia = system: SR leukemia
# SK-MEL-5 melanoma = system: SK-MEL-5 melanoma
# HL-60(TB) leukemia = system: HL-60(TB) leukemia
# SK-MEL-28 melanoma = system: SK-MEL-28 melanoma
# NCI/ADR-RES ovarian = system: NCI/ADR-RES ovarian
# COLO 205 colon = system: COLO 205 colon
# SF-539 CNS = system: SF-539 CNS
# OVCAR-8 ovarian = system: OVCAR-8 ovarian
# HOP-92 NSCLC = system: HOP-92 NSCLC
# OVCAR-4 ovarian = system: OVCAR-4 ovarian
# UACC-62 melanoma = system: UACC-62 melanoma
# NCI-H226 lung = system: NCI-H226 lung
# K-562 leukemia = system: K-562 leukemia
# SW-620 colon = system: SW-620 colon
# DU-145 prostate = system: DU-145 prostate
# OVCAR-3 ovarian = system: OVCAR-3 ovarian
# HCT-15 colon = system: HCT-15 colon
# NCI-H522 lung = system: NCI-H522 lung
# T-47D breast = system: T-47D breast
# SK-MEL-2 melanoma = system: SK-MEL-2 melanoma
# TK-10 renal = system: TK-10 renal
# SN12C renal = system: SN12C renal
# SF-268 CNS = system: SF-268 CNS
# NCI-H23 lung = system: NCI-H23 lung
# NCI-H460 lung = system: NCI-H460 lung
# A498 renal = system: A498 renal
# MDA-N = system: MDA-N
# RXF 393 renal = system: RXF 393 renal
# ACHN renal = system: ACHN renal
# SNB-19 CNS = system: SNB-19 CNS
# EKVX NSCLC = system: EKVX NSCLC
# PC-3 prostate = system: PC-3 prostate
# HCT-116 colon = system: HCT-116 colon
# SK-OV-3 ovarian = system: SK-OV-3 ovarian
# MOLT-4 leukemia = system: MOLT-4 leukemia
# KM12 colon = system: KM12 colon
# CAKI-1 renal = system: CAKI-1 renal
# M14 melanoma = system: M14 melanoma
# CCRF-CEM leukemia = system: CCRF-CEM leukemia
# IGROV1 ovarian = system: IGROV1 ovarian
# MCF7 breast = system: MCF7 breast
# HT29 colon = system: HT29 colon
# HOP-62 NSCLC = system: HOP-62 NSCLC
# 786-0 renal = system: 786-0 renal
# SF-295 CNS = system: SF-295 CNS
# U251 CNS = system: U251 CNS
# MALME-3M melanoma = system: MALME-3M melanoma
# HS 578T breast = system: HS 578T breast
# A549 NSCLC = system: A549 NSCLC
# SNB-75 CNS = system: SNB-75 CNS
# MDA-MB-435 = system: MDA-MB-435
# HCC-2998 colon = system: HCC-2998 colon
# UACC-257 melanoma = system: UACC-257 melanoma
# LOX IMVI melanoma = system: LOX IMVI melanoma
# UO-31 renal = system: UO-31 renal
# BT-549 breast = system: BT-549 breast
# OVCAR-5 ovarian = system: OVCAR-5 ovarian
smiles,measurement,setting,value
C/C(CC(O)(C(F)(F)F)C(F)(F)F)=N\NC(N)=S,TGI,RPMI-8226 leukemia,> 10 µM
same,TGI,MDA-MB-231 breast,> 10 µM
same,TGI,SR leukemia,> 10 µM
same,TGI,SK-MEL-5 melanoma,> 10 µM
same,TGI,HL-60(TB) leukemia,> 10 µM
same,TGI,SK-MEL-28 melanoma,> 10 µM
same,TGI,NCI/ADR-RES ovarian,> 10 µM
same,TGI,COLO 205 colon,> 10 µM
same,TGI,SF-539 CNS,> 10 µM
same,TGI,OVCAR-8 ovarian,> 10 µM
same,TGI,HOP-92 NSCLC,> 10 µM
same,TGI,OVCAR-4 ovarian,> 10 µM
same,TGI,UACC-62 melanoma,> 10 µM
same,TGI,NCI-H226 lung,> 10 µM
same,TGI,K-562 leukemia,> 10 µM
same,TGI,SW-620 colon,> 10 µM
same,TGI,DU-145 prostate,> 10 µM
same,TGI,OVCAR-3 ovarian,> 10 µM
same,TGI,HCT-15 colon,> 10 µM
same,TGI,NCI-H522 lung,> 10 µM
same,TGI,T-47D breast,> 10 µM
same,TGI,SK-MEL-2 melanoma,> 10 µM
same,TGI,TK-10 renal,> 10 µM
same,TGI,SN12C renal,> 10 µM
same,TGI,SF-268 CNS,> 10 µM
same,TGI,NCI-H23 lung,> 10 µM
same,TGI,NCI-H460 lung,> 10 µM
same,TGI,A498 renal,> 10 µM
same,TGI,MDA-N,> 10 µM
same,TGI,RXF 393 renal,> 10 µM
same,TGI,ACHN renal,> 10 µM
same,TGI,SNB-19 CNS,> 10 µM
same,TGI,EKVX NSCLC,> 10 µM
same,TGI,PC-3 prostate,> 10 µM
same,TGI,HCT-116 colon,> 10 µM
same,TGI,SK-OV-3 ovarian,> 10 µM
same,TGI,MOLT-4 leukemia,> 10 µM
same,TGI,KM12 colon,> 10 µM
same,TGI,CAKI-1 renal,> 10 µM
same,TGI,M14 melanoma,> 10 µM
same,TGI,CCRF-CEM leukemia,> 10 µM
same,TGI,IGROV1 ovarian,> 10 µM
same,TGI,MCF7 breast,> 10 µM
same,TGI,HT29 colon,> 10 µM
same,TGI,HOP-62 NSCLC,> 10 µM
same,TGI,786-0 renal,> 10 µM
same,TGI,SF-295 CNS,> 10 µM
same,TGI,U251 CNS,> 10 µM
same,TGI,MALME-3M melanoma,> 10 µM
same,TGI,HS 578T breast,> 10 µM
same,TGI,A549 NSCLC,> 10 µM
same,TGI,SNB-75 CNS,> 10 µM
same,TGI,MDA-MB-435,> 10 µM
same,TGI,HCC-2998 colon,> 10 µM
same,TGI,UACC-257 melanoma,> 10 µM
same,TGI,LOX IMVI melanoma,> 10 µM
same,TGI,UO-31 renal,> 10 µM
CC[C@@]1(O)C(=O)OCc2c1cc1n(c2=O)Cc2c-1nc1ccccc1c2/C=N\NC(=O)C(N)Cc1ccc(O)cc1 (some centres undefined),TGI,RPMI-8226 leukemia,5.62 µM
same,TGI,MDA-MB-231 breast,> 31.6 µM
same,TGI,SR leukemia,0.396 µM
same,TGI,SK-MEL-5 melanoma,2.7 µM
same,TGI,HL-60(TB) leukemia,4.69 µM
same,TGI,COLO 205 colon,> 31.6 µM
same,TGI,SF-539 CNS,0.217 µM
same,TGI,HOP-92 NSCLC,5.64 µM
same,TGI,OVCAR-4 ovarian,> 31.6 µM
same,TGI,UACC-62 melanoma,1.71 µM
same,TGI,NCI-H226 lung,2.64 µM
same,TGI,K-562 leukemia,> 100 µM
same,TGI,HCT-15 colon,> 31.6 µM
same,TGI,NCI-H522 lung,5.21 µM
same,TGI,T-47D breast,> 25.7 µM
same,TGI,TK-10 renal,> 31.6 µM
same,TGI,SN12C renal,7.75 µM
same,TGI,NCI-H23 lung,1.82 µM
same,TGI,NCI-H460 lung,10.8 µM
same,TGI,A498 renal,3.65 µM
same,TGI,MDA-N,> 31.6 µM
same,TGI,BT-549 breast,> 31.6 µM
same,TGI,RXF 393 renal,4.38 µM
same,TGI,ACHN renal,2.75 µM
same,TGI,SNB-19 CNS,> 31.6 µM
same,TGI,HCT-116 colon,4.44 µM
same,TGI,SK-OV-3 ovarian,9.77 µM
same,TGI,MOLT-4 leukemia,1.59 µM
same,TGI,CCRF-CEM leukemia,1.15 µM
same,TGI,786-0 renal,6.55 µM
same,TGI,SF-295 CNS,3.16 µM
same,TGI,U251 CNS,5.04 µM
same,TGI,MALME-3M melanoma,7.8 µM
same,TGI,UACC-257 melanoma,18.9 µM
same,TGI,LOX IMVI melanoma,2.77 µM
same,TGI,UO-31 renal,8.76 µM
CCC(CO)Nc1nc(NCc2ccccc2)c2n[nH]c(C(C)C)c2n1 (centres undefined),GI50,RPMI-8226 leukemia,5.95 µM
same,TGI,RPMI-8226 leukemia,29 µM
same,GI50,MDA-MB-231 breast,15.8 µM
same,TGI,MDA-MB-231 breast,35.3 µM
same,GI50,SR leukemia,3.24 µM
same,TGI,SR leukemia,10.6 µM
same,GI50,SK-MEL-5 melanoma,4.91 µM
same,TGI,SK-MEL-5 melanoma,17.3 µM
same,GI50,HL-60(TB) leukemia,4.87 µM
same,TGI,HL-60(TB) leukemia,21 µM
same,GI50,SK-MEL-28 melanoma,10.5 µM
same,TGI,SK-MEL-28 melanoma,27.7 µM
same,GI50,OVCAR-5 ovarian,13.4 µM
same,TGI,OVCAR-5 ovarian,36 µM
same,GI50,NCI/ADR-RES ovarian,16.7 µM
same,TGI,NCI/ADR-RES ovarian,39.2 µM
same,GI50,COLO 205 colon,4.45 µM
same,TGI,COLO 205 colon,17.1 µM
same,GI50,SF-539 CNS,12.7 µM
same,TGI,SF-539 CNS,26.1 µM
same,GI50,OVCAR-8 ovarian,8.98 µM
same,TGI,OVCAR-8 ovarian,31.1 µM
same,GI50,HOP-92 NSCLC,3.75 µM
same,TGI,HOP-92 NSCLC,19.5 µM
same,GI50,OVCAR-4 ovarian,6.81 µM
same,TGI,OVCAR-4 ovarian,25.6 µM
same,GI50,UACC-62 melanoma,11.3 µM
same,TGI,UACC-62 melanoma,24.7 µM
same,GI50,NCI-H226 lung,23.8 µM
same,TGI,NCI-H226 lung,60.8 µM
same,GI50,K-562 leukemia,5.96 µM
same,TGI,K-562 leukemia,34.4 µM
same,GI50,SW-620 colon,4.76 µM
same,TGI,SW-620 colon,18 µM
same,GI50,DU-145 prostate,3.73 µM
same,TGI,DU-145 prostate,16.6 µM
same,GI50,OVCAR-3 ovarian,7.32 µM
same,TGI,OVCAR-3 ovarian,22.7 µM
same,GI50,HCT-15 colon,14.7 µM
same,TGI,HCT-15 colon,49.7 µM
same,GI50,NCI-H522 lung,14.5 µM
same,TGI,NCI-H522 lung,34.1 µM
same,GI50,T-47D breast,16 µM
same,TGI,T-47D breast,41.2 µM
same,GI50,SK-MEL-2 melanoma,5.15 µM
same,TGI,SK-MEL-2 melanoma,21.4 µM
same,GI50,TK-10 renal,13.7 µM
same,TGI,TK-10 renal,33.1 µM
same,GI50,SN12C renal,14.1 µM
same,TGI,SN12C renal,31.7 µM
same,GI50,SF-268 CNS,10.7 µM
same,TGI,SF-268 CNS,26.4 µM
same,GI50,NCI-H23 lung,12.3 µM
same,TGI,NCI-H23 lung,31.2 µM
same,GI50,NCI-H460 lung,4.94 µM
same,TGI,NCI-H460 lung,19.4 µM
same,GI50,A498 renal,11.6 µM
same,TGI,A498 renal,24.4 µM
same,GI50,BT-549 breast,10.7 µM
same,TGI,BT-549 breast,23.7 µM
same,GI50,RXF 393 renal,5.89 µM
same,TGI,RXF 393 renal,21 µM
same,GI50,ACHN renal,4.42 µM
same,TGI,ACHN renal,16.9 µM
same,GI50,SNB-19 CNS,15.8 µM
same,TGI,SNB-19 CNS,30.5 µM
same,GI50,EKVX NSCLC,12.1 µM
same,TGI,EKVX NSCLC,27.4 µM
same,GI50,PC-3 prostate,7.01 µM
same,TGI,PC-3 prostate,31.5 µM
same,GI50,HCT-116 colon,4.03 µM
same,TGI,HCT-116 colon,14.5 µM
same,GI50,SK-OV-3 ovarian,6.4 µM
same,TGI,SK-OV-3 ovarian,20.7 µM
same,GI50,MOLT-4 leukemia,11.1 µM
same,TGI,MOLT-4 leukemia,46.3 µM
same,GI50,KM12 colon,10.2 µM
same,TGI,KM12 colon,23.1 µM
same,GI50,CAKI-1 renal,3 µM
same,TGI,CAKI-1 renal,16.2 µM
same,GI50,M14 melanoma,6.21 µM
same,TGI,M14 melanoma,20.2 µM
same,GI50,CCRF-CEM leukemia,6.55 µM
same,TGI,CCRF-CEM leukemia,52.6 µM
same,GI50,IGROV1 ovarian,3.44 µM
same,TGI,IGROV1 ovarian,25.6 µM
same,GI50,MCF7 breast,5.92 µM
same,TGI,MCF7 breast,25.9 µM
same,GI50,HT29 colon,3.88 µM
same,TGI,HT29 colon,27.8 µM
same,GI50,HOP-62 NSCLC,13.9 µM
same,TGI,HOP-62 NSCLC,31.8 µM
same,GI50,786-0 renal,6.68 µM
same,TGI,786-0 renal,21.5 µM
same,GI50,SF-295 CNS,16.1 µM
same,TGI,SF-295 CNS,32.7 µM
same,GI50,U251 CNS,11.4 µM
same,TGI,U251 CNS,25.3 µM
same,GI50,MALME-3M melanoma,13 µM
same,TGI,MALME-3M melanoma,27.4 µM
same,GI50,HS 578T breast,11.6 µM
same,TGI,HS 578T breast,34.3 µM
same,GI50,A549 NSCLC,12 µM
same,TGI,A549 NSCLC,46.4 µM
same,GI50,SNB-75 CNS,11.4 µM
same,TGI,SNB-75 CNS,25.4 µM
same,GI50,MDA-MB-435,10 µM
same,TGI,MDA-MB-435,24 µM
same,GI50,HCC-2998 colon,12.6 µM
same,TGI,HCC-2998 colon,26 µM
same,GI50,UACC-257 melanoma,16.6 µM
same,TGI,UACC-257 melanoma,35.6 µM
same,GI50,LOX IMVI melanoma,7.55 µM
same,TGI,LOX IMVI melanoma,20.9 µM
same,GI50,UO-31 renal,7.43 µM
same,TGI,UO-31 renal,21.9 µM
